We go through twelve molecules from ChEMBL document CHEMBL1201862, “PubChem BioAssay data set” (2004).

Among the test systems are BT-549; SN12C; MDA-N; SR; MDA-MB-231; SNB-19; SK-MEL-5; SF-295; MOLT-4; SNB-75; SF-268; M14; UACC-257; UO-31; Malme-3M; OVCAR-4; SK-OV-3; DU-145; CAKI-1.
Common to all, as to assay: NCI tumour cell line growth inhibition, 48 h

Structures can show the parent of a compound that is named as a salt.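 Test compounds were applied to cells in 96-well plates for 48 hours at 5 doses. Here, GI50 denotes the concentration required for 50% inhibition of growth.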 Active and inactive are the calls of the source. Cut-off read from the data, not from the text of the source: active = GI50 up to about 1.1 µM and inactive = higher.

As to `Clc1cc2nc(C3CCCO3)[nH]c2cc1Cl` (stereo unspecified), the GI50 in the experiment with BT-549 is 26.2 µM (inactive); in the experiment on SN12C, > 100 µM (inactive); in the experiment with MDA-N, 20.1 µM (inactive); in the experiment on SR it was 37.6 µM (inactive); in the experiment on MDA-MB-231, > 100 µM (inactive); with SNB-19, > 100 µM (inactive). Further, the GI50 in the experiment on SK-MEL-5 is 35.9 µM (inactive); with SF-295, 57.1 µM (inactive); in the experiment on MOLT-4, 52 µM (inactive); with SNB-75, 30.1 µM (inactive); with SF-268, 67 µM (inactive); with M14, 72.9 µM (inactive). Also, the GI50 in the experiment on UACC-257 was > 100 µM (inactive); with UO-31, 16.9 µM (inactive); in the experiment with Malme-3M it was > 100 µM (inactive); in the experiment on OVCAR-4 it was 46.8 µM (inactive); in the experiment on SK-OV-3, 69.2 µM (inactive).
On to `CCOC(=O)c1cn(C)nc1N/C(C)=C\C(=O)c1ccccc1`, for which the GI50 in the experiment on BT-549 is > 100 µM (inactive); in the experiment with DU-145, > 100 µM (inactive); in the experiment on CAKI-1, > 100 µM (inactive); in the experiment on SN12C, > 100 µM (inactive); in the experiment with SR, > 100 µM (inactive); in the experiment on MDA-MB-231, 20.9 µM (inactive). Besides, the GI50 in the experiment on SNB-19, in the experiment on SK-MEL-5, in the experiment with SF-295, with MOLT-4, in the experiment with SF-268 and in the experiment with M14 was > 100 µM (inactive) each time. The GI50 with UACC-257, with UO-31, in the experiment with Malme-3M, in the experiment with OVCAR-4 and with SK-OV-3 was > 100 µM (inactive) in each case.
For the molecule `CCOC(=O)C1(C)CCCc2sc(N)c(C#N)c21` (stereo unspecified), the GI50 with BT-549, with SN12C, in the experiment on MDA-N, with SR, in the experiment on MDA-MB-231 and in the experiment with SNB-19 was > 100 µM (inactive) each time. Also, the GI50 with SK-MEL-5 was > 100 µM (inactive); with MOLT-4 it was > 100 µM (inactive); with SNB-75, 69 µM (inactive); in the experiment on M14 it was > 100 µM (inactive); in the experiment with UACC-257 it was > 100 µM (inactive); in the experiment on UO-31, > 100 µM (inactive). Besides, in the experiment with Malme-3M, the GI50 is > 100 µM (inactive).
In the case of `O=C(ON=c1c2ccccc2ccc2ccccc12)c1ccccc1`, the GI50 with BT-549 was 31.6 µM (inactive); in the experiment on DU-145 it was 42.2 µM (inactive); in the experiment on CAKI-1, 24.4 µM (inactive); with SN12C, 27.2 µM (inactive); with SR, 8.39 µM (inactive); in the experiment with MDA-MB-231, 22.9 µM (inactive). Moreover, the GI50 in the experiment with SNB-19 is 26.1 µM (inactive); in the experiment with SK-MEL-5, 16.2 µM (inactive); in the experiment on SF-295, 35.7 µM (inactive); in the experiment with MOLT-4, 7.96 µM (inactive); with SNB-75, 26.5 µM (inactive); in the experiment with SF-268, 35.6 µM (inactive). In addition, the GI50 was 18.1 µM (inactive) in the experiment on M14; 27.6 µM (inactive) in the experiment on UACC-257; 25.5 µM (inactive) in the experiment with UO-31; 22.9 µM (inactive) in the experiment on Malme-3M; 28 µM (inactive) in the experiment on OVCAR-4; 56 µM (inactive) with SK-OV-3.
Regarding `CC1CC/C(=C\c2ccc(N(C)C)cc2)C(=O)/C1=C/c1ccc(N(C)C)cc1` (stereo unspecified), the GI50 in the experiment with BT-549, in the experiment on CAKI-1, with SN12C, with MDA-N, in the experiment with SR and in the experiment on MDA-MB-231 was > 100 µM (inactive) in each case. Moreover, the GI50 in the experiment with SK-MEL-5, in the experiment on SF-295, with MOLT-4, in the experiment on SNB-75, with M14 and with UACC-257 was > 100 µM (inactive) each time. The GI50 in the experiment on UO-31 was > 100 µM (inactive); in the experiment with Malme-3M, 0.228 µM (active); in the experiment on OVCAR-4, > 100 µM (inactive); in the experiment with SK-OV-3, > 100 µM (inactive).
In the case of `C=CCOC(=O)CC[N+]1=CCC(c2ccccc2)(c2ccccc2)O1`, the GI50 in the experiment on BT-549, in the experiment with DU-145, with CAKI-1, in the experiment with SN12C, in the experiment on MDA-N and in the experiment with MDA-MB-231 was > 100 µM (inactive) in each case. The GI50 in the experiment with SNB-19, in the experiment with SK-MEL-5, in the experiment with SF-295, in the experiment with MOLT-4, with SF-268 and in the experiment with M14 was > 100 µM (inactive) in each case. The GI50 with UACC-257, with UO-31, in the experiment on OVCAR-4 and in the experiment on SK-OV-3 was > 100 µM (inactive) each time.
For the molecule `O=c1cnc2cc3ccccc3cc2[nH]1`, the GI50 is > 100 µM (inactive) with BT-549; > 100 µM (inactive) in the experiment with CAKI-1; > 100 µM (inactive) with SN12C; > 100 µM (inactive) in the experiment with MDA-N; > 100 µM (inactive) in the experiment with SR; 75.7 µM (inactive) in the experiment on MDA-MB-231. For the same molecule, the GI50 with SNB-19 was 71.6 µM (inactive); with SK-MEL-5, > 100 µM (inactive); in the experiment with SF-295, > 100 µM (inactive); in the experiment with MOLT-4 it was > 100 µM (inactive); in the experiment with SNB-75, 37.8 µM (inactive); in the experiment with SF-268 it was > 100 µM (inactive). In addition, the GI50 with M14 is > 100 µM (inactive); in the experiment on UACC-257 it was > 100 µM (inactive); with UO-31 it was 46.9 µM (inactive); in the experiment with Malme-3M it was > 100 µM (inactive); with OVCAR-4, > 100 µM (inactive); in the experiment on SK-OV-3, > 100 µM (inactive).
`CC(C)(C)C(=O)OC(N)/C=C/c1ccccc1` (stereo unspecified): the GI50 is > 100 µM (inactive) in the experiment with BT-549; > 100 µM (inactive) in the experiment with CAKI-1; > 100 µM (inactive) with SN12C; > 100 µM (inactive) with MDA-N; 94 µM (inactive) in the experiment on SR; > 100 µM (inactive) with MDA-MB-231. Besides, the GI50 in the experiment on SK-MEL-5, in the experiment on SF-295, in the experiment with MOLT-4, in the experiment on SNB-75, in the experiment with M14 and with UACC-257 was > 100 µM (inactive) throughout. The GI50 in the experiment on UO-31, in the experiment with Malme-3M, in the experiment with OVCAR-4 and with SK-OV-3 was > 100 µM (inactive) each time.
Consider `O=c1[nH]nc(-c2cccc([N+](=O)[O-])c2)[nH]1`, for which the GI50 in the experiment on BT-549, with DU-145, with CAKI-1, in the experiment on SN12C, in the experiment on MDA-N and in the experiment with SR was > 100 µM (inactive) in each case. Further, the GI50 in the experiment with SNB-19, in the experiment on SF-295, with MOLT-4, with SNB-75, in the experiment with SF-268 and in the experiment on M14 was > 100 µM (inactive) each time. For the same molecule, the GI50 in the experiment with UACC-257 is > 100 µM (inactive); in the experiment with UO-31, 70.3 µM (inactive); with Malme-3M it was > 100 µM (inactive); in the experiment on OVCAR-4 it was > 100 µM (inactive).
`Cc1nn(-c2ccccc2)c2nc(S)cnc12`: the GI50 with BT-549, in the experiment with DU-145, with CAKI-1, with SN12C, in the experiment on MDA-N and in the experiment with SR was > 100 µM (inactive) each time. The GI50 in the experiment on SNB-19, in the experiment with SF-295, in the experiment with MOLT-4, with SF-268, in the experiment with M14 and in the experiment with UACC-257 was > 100 µM (inactive) throughout. The GI50 with UO-31, in the experiment with Malme-3M, in the experiment with OVCAR-4 and in the experiment with SK-OV-3 was > 100 µM (inactive) throughout.
For the molecule `COc1cc2c(cc1OCCCCCOc1cc3c(cc1OC)C(=O)N1CCC[C@H]1C(=O)N3)N=C[C@@H]1CCCN1C2=O`, the GI50 with BT-549 was 0.075 µM (active); with DU-145 it was 0.78 µM (active); in the experiment on CAKI-1 it was 0.839 µM (active); in the experiment on SN12C it was 0.0711 µM (active); with SR, < 0.01 µM (active); in the experiment with MDA-MB-231 it was 0.14 µM (active). Further, the GI50 with SNB-19 is 0.192 µM (active); in the experiment with SK-MEL-5 it was 0.1 µM (active); in the experiment with SF-295 it was 0.268 µM (active); in the experiment on MOLT-4, < 0.01 µM (active); in the experiment with SNB-75, < 0.01 µM (active); with SF-268, 0.0325 µM (active). Moreover, the GI50 is 0.114 µM (active) with M14; 0.237 µM (active) in the experiment on UACC-257; 0.762 µM (active) in the experiment with UO-31; 0.161 µM (active) in the experiment with Malme-3M; 0.198 µM (active) with OVCAR-4; 0.102 µM (active) in the experiment on SK-OV-3.
As for `C=C1C[C@@H]2CC[C@@]34C[C@H]5O[C@H]6[C@@H](O3)[C@H]3O[C@H](CC[C@@H]3O[C@H]6[C@H]5O4)CC(=O)C[C@@H]3[C@@H](OC)[C@@H](C[C@H](O)CN)O[C@H]3C[C@H]3O[C@@H](CC[C@@H]1O2)C[C@@H](C)C3=C` [ERIBULIN MESYLATE], the GI50 with BT-549 was 0.00703 µM (active); with DU-145, 0.00118 µM (active); with CAKI-1 it was 0.0179 µM (active); with SN12C, 0.00361 µM (active); in the experiment with MDA-N, 7.59e-05 µM (active); in the experiment with MDA-MB-231 it was 0.00255 µM (active). Moreover, the GI50 is 0.000877 µM (active) with SK-MEL-5; 0.0065 µM (active) with SF-295; 0.000791 µM (active) with MOLT-4; 0.00267 µM (active) in the experiment on SF-268; 0.00309 µM (active) in the experiment on M14; 0.126 µM (active) in the experiment with UO-31. Also, the figures for the GI50 in the experiment with Malme-3M, in the experiment on OVCAR-4 and in the experiment with SK-OV-3 were 0.00366 µM (active), 0.00319 µM (active) and 0.000558 µM (active), respectively.
